Data: publication PMC4661883, “Cell-Penetrating Ability of Peptide Hormones: Key Role of Glycosaminoglycans Clustering” (International Journal of Molecular Sciences, 2015)

Legend:
[1] = previously shown; cited from earlier work
Excerpt: This could be related to the fact that arginine has a higher affinity for sulfated GAGs than lysine.

[2] = previously shown; cited from earlier work; remark: listed apart in the source
Excerpt: We recently reported that upon binding to sulfated GAGs, PACAP38 undergoes a random coil-to-α-helix conformational conversion. […] Thus, we evaluated if the lower efficacy of cellular uptake of representative peptides of the secretin/glucagon/GHRH superfamily and of calcitonin could not be ascribed to the incapacity of ...

CHO K1 cells = test: Cellular uptake of fluorescently labelled peptides by flow cytometry, CHO K1 cells; assay type: cell-based, Chinese hamster; conditions: 1 µM fluorescently-labelled (FITC-Ahx N-terminal) peptide, 1 h at 37 °C, 1% FBS Ham's F12, heparin wash and trypsin, at least 3 experiments
Description: Chinese hamster ovary cells K1 (CHO K1; obtained from ATCC, Manassas, VA, USA) and xylosyltransferase deficient cells [18] (CHO pgs-A-745; obtained from ATCC) were maintained in Ham’s F12 medium supplemented with 10% foetal bovine serum (FBS), 2 mM L-glutamine and antibiotic (10,000 UI/mL penicillin, and 10,000 UI/mL streptomycin). Cells were maintained as a monolayer at 37 °C in a humidified atmosphere of 5% CO2 and 95% air and passaged by trypsinization when the cells reached 70%–80% confluence.

CHO pgs-A-745 cells = test: Cellular uptake of fluorescently labelled peptides by flow cytometry, GAGs-deficient CHO pgs-A-745 cells; assay type: cell-based, Chinese hamster; conditions: 1 µM fluorescently labelled peptide, 1 h at 37 °C
Description: Figure 1 Cellular uptake of cationic peptide hormones and TAT peptide. […] Data represent the relative mean fluorescence intensity (± S.E.M.) of gated cells from at least 3 individual experiments and results are expressed as a percentage of the median fluorescence for 1 μM PACAP38 in CHO K1 cells. Cells were incubated for 1 h at 37 °C in 5% CO2 with fluorescently labelled peptides, washed twice in HBSS, treated with 100 μg/mL heparin for 5 min, detached by trypsin treatment, washed by centrifugation and resuspended in ice-cold sorting buffer before flow cytometry analysis.
Chinese hamster ovary cells K1 (CHO K1; obtained from ATCC, Manassas, VA, USA) and xylosyltransferase deficient cells (CHO pgs-A-745; obtained from ATCC) were maintained in Ham’s F12 medium supplemented with 10% foetal bovine serum (FBS), 2 mM L-glutamine and antibiotic (10,000 UI/mL penicillin, and 10,000 UI/mL streptomycin). […]
For cellular uptake measurement, CHO K1 and CHO pgs-A-745 were seeded in 12-well plates at a density of 30,000 cells/well for 48 h to approximately 75% confluence. […] To confirm that the fluorescence measured by flow cytometry was not associated to non-specific binding of the FITC-peptides at the cell surface, we performed the analysis after treatment with the fluorescent quencher trypan blue. […]

[3] = Heparin affinity chromatography (HiTrap Heparin HP sepharose column, NaCl gradient); assay type: binding, porcine; conditions: 20 mM phosphate pH 7.4, NaCl gradient
Description: (A) Chromatograms of PACAP38 elution with increasing NaCl concentration on a sepharose heparin column connected to a FPLC Aktapure system.
The relative binding affinity of the peptides for sulfated GAGs was evaluated using a 1 mL HiTrap Heparin HP column packed with sepharose and immobilized heparin from porcine intestinal mucosa (GE Healthcare, Baie-d'Urfé, QC, Canada). The column was connected to a FPLC Aktapure system (GE Healthcare) and equilibrated with phosphate buffer (20 mM, pH 7.4) prior to injection. Five hundred microliters of 0.5 mg/mL peptide solutions were injected at a flow rate of 0.5 mL/min. After injection, the elution consisted of an isocratic step of 5 mL phosphate buffer (20 mM, pH 7.4) followed by a gradient from 0 to 2 M NaCl in phosphate buffer (pH 7.4). Peptide elution was monitored using absorbance at 230 nm.

[4] = Heparin clustering measured by turbidity at 400 nm, heparin-into-peptide titration; assay type: physicochemical; conditions: 1.25 µL aliquots of 100 µM heparin into 1 mL 50 µM peptide, 20 mM phosphate, 100 mM NaCl, pH 7.4
Description: Each peak corresponds to the injection of 1.25 μL of a 100 μM heparin solution (20 mM phosphate, 100 mM NaCl, pH 7.4) into a 1 mL 50 μM peptide solution (20 mM phosphate, 100 mM NaCl, pH 7.4).
The formation of macromolecular GAG-peptide clusters was monitored by measuring the light scattering at 400 nm, as previously described [27, 28], using a 100 Bio Cary UV-visible spectrophotometer (Varian, Malton, ON, Canada). Briefly, for the heparin-into-peptide titration, a 1 cm length quartz cuvette was filled with 1 mL of a 50 μM peptide solution (20 mM phosphate buffer, 100 mM·NaCl, pH 7.4) and 1.25 μL aliquots of a 100 μM heparin solution (20 mM phosphate buffer, 100 mM·NaCl, pH 7.4) were successively added. The solution was gently mixed by vortex and the turbidity at 400 nm was immediately measured. For the peptide-into-heparin titration, a 1 cm length quartz cuvette was filled with 1 mL of a 10 μM heparin solution (20 mM phosphate buffer, 100 mM·NaCl, pH 7.4) and 12.5 μL aliquots of a 200 μM peptide solution (20 mM phosphate buffer, 100 mM·NaCl, pH 7.4) were successively added. The solution was gently mixed by vortex and the turbidity at 400 nm was immediately measured. Data was expressed as solution turbidity at 400 nm as function of peptide/heparin or heparin/peptide molar ratio.

Sequence	NaCl concentration at which TAT is eluted from heparin column [1]	Secondary conformation of TAT upon binding to heparin [2]	Cellular uptake, fold lower compared to PACAP38 (CHO K1 cells)	Extent of internalization in CHO pgs-A-745 versus CHO K1 cells (in words) (CHO pgs-A-745 cells)	Relative binding to heparin column (in words) [3]	Turbidity at 400 nm on titration of heparin into peptide (in words) [4]
GRKKRRQRRRPPQ [TAT(48–60), cationic peptide derived from the HIV-1 protein TAT, the control CPP used in this study]	around 1.8 M	adopts an α-helical conformation				
CGNLSTCMLGTYTQDFNKFHTFPQTAIGVGAP [Calcitonin]			5- to 10 fold	rather similar	bind weakly to the heparin column	absence of turbidity
